We go through four compounds from paper PMC9851200, “Multiparameter phenotypic screening for endogenous TFEB and TFE3 translocation identifies novel chemical series modulating lysosome function” (Autophagy, 2022).

In assay [1] the target is T1, TGFBR1 (Homo sapiens, UniProt P36897).
T1 sequence (P36897 34-503): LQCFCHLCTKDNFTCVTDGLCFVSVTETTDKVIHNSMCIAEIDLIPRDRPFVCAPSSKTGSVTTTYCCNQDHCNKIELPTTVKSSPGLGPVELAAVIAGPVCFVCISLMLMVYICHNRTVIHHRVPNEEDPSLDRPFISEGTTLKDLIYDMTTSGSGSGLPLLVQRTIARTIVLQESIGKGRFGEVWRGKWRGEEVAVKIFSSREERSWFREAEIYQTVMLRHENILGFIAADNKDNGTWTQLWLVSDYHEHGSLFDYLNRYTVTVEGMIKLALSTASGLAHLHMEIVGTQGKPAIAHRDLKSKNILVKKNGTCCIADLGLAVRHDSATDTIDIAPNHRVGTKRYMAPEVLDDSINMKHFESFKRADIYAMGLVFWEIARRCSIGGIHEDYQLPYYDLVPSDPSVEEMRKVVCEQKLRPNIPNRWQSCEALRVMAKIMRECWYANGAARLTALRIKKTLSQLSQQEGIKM
Put plainly: TGFBR1 binding KD (Table S3). The text has this:
Supplement KAUP_A_2095834_SM5251.zip/Supplementary Tables R7.xlsx, sheet "Table S3 - Analogues"

Assay [2] deals with T1, TGFBR1. Kind of assay: KINOMEscan TGFBR1. Format: binding.
The target in the next assay is T2, PRKD1 (Homo sapiens, UniProt Q15139).
T2 sequence (Q15139 1-912): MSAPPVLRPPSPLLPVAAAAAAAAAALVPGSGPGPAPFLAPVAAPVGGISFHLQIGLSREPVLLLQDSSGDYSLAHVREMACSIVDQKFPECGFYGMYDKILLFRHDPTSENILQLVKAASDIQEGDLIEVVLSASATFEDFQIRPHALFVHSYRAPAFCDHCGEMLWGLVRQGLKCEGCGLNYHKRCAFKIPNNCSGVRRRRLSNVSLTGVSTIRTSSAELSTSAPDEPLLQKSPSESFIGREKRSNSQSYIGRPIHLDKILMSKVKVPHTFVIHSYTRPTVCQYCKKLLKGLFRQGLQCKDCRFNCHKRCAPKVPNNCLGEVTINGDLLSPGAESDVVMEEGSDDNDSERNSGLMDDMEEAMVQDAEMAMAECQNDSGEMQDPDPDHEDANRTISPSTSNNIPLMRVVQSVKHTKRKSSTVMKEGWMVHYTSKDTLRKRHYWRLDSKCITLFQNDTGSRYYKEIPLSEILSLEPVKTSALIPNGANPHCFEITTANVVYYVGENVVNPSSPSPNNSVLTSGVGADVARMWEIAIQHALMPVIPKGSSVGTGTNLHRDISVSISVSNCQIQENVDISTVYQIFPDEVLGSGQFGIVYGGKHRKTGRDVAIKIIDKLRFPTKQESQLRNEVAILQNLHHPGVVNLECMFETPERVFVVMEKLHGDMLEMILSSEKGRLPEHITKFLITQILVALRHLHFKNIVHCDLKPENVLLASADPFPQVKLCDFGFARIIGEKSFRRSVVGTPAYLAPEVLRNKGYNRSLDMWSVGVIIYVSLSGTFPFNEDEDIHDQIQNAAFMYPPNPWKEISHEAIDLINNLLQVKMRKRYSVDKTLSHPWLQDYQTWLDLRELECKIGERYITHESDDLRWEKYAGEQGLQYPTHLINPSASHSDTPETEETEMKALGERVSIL
Put plainly: KINOMEscan PRKD1. Format: binding. Conditions: NEW KINOMEscan.

A further assay has as its target CDC42BPG/DMPK2 (Homo sapiens, UniProt Q6DT37). Format: binding.
Another assay concerns the target T3, PRKD3 (Homo sapiens, UniProt O94806).
T3 sequence (O94806 1-890): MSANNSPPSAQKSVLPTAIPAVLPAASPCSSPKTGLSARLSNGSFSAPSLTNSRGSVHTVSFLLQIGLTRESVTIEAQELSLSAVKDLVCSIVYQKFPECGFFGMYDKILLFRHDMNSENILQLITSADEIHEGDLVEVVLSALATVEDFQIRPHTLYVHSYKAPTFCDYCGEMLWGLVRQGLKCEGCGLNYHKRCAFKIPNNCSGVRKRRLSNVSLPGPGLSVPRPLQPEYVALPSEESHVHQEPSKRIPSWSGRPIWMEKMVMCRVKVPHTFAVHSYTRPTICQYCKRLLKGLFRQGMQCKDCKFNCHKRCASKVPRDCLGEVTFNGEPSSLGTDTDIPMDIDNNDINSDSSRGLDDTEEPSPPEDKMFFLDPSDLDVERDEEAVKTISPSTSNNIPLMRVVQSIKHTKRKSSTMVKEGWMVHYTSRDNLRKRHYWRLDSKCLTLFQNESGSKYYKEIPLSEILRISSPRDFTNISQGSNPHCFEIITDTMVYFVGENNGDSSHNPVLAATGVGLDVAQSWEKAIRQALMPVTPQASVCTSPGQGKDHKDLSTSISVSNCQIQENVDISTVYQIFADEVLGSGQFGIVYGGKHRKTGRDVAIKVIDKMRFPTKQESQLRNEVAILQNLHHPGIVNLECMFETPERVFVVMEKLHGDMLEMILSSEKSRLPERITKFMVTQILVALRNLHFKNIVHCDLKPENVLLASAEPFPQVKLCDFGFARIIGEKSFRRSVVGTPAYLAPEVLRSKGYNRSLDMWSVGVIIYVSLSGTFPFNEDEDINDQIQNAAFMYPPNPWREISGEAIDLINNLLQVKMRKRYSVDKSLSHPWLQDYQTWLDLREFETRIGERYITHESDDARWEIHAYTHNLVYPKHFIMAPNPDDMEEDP
Put plainly: KINOMEscan PRKD3. Format: binding. Conditions: kinase PRKD3; NEW KINOMEscan.

Another assay deals with PIKFYVE (Homo sapiens, UniProt Q9Y2I7). Kind of assay: KINOMEscan PIKFYVE. The class given is binding. Conditions: kinase PIKFYVE; NEW KINOMEscan.
For assay [3], the target named is kinases (KINOMEscan panel) (Homo sapiens, UniProt P68400). The class given is binding. The note with it: CSNK2A1; NEW KINOMEscan.
A further assay has as its target PKNB(M.tuberculosis) (Mycobacterium tuberculosis, UniProt P9WI81). Format: binding.

Each structure is given as a SMILES string. Read-outs that look alike come from different tables or passages of the source.

Sequence of CDC42BPG/DMPK2 (Q6DT37 whole entry): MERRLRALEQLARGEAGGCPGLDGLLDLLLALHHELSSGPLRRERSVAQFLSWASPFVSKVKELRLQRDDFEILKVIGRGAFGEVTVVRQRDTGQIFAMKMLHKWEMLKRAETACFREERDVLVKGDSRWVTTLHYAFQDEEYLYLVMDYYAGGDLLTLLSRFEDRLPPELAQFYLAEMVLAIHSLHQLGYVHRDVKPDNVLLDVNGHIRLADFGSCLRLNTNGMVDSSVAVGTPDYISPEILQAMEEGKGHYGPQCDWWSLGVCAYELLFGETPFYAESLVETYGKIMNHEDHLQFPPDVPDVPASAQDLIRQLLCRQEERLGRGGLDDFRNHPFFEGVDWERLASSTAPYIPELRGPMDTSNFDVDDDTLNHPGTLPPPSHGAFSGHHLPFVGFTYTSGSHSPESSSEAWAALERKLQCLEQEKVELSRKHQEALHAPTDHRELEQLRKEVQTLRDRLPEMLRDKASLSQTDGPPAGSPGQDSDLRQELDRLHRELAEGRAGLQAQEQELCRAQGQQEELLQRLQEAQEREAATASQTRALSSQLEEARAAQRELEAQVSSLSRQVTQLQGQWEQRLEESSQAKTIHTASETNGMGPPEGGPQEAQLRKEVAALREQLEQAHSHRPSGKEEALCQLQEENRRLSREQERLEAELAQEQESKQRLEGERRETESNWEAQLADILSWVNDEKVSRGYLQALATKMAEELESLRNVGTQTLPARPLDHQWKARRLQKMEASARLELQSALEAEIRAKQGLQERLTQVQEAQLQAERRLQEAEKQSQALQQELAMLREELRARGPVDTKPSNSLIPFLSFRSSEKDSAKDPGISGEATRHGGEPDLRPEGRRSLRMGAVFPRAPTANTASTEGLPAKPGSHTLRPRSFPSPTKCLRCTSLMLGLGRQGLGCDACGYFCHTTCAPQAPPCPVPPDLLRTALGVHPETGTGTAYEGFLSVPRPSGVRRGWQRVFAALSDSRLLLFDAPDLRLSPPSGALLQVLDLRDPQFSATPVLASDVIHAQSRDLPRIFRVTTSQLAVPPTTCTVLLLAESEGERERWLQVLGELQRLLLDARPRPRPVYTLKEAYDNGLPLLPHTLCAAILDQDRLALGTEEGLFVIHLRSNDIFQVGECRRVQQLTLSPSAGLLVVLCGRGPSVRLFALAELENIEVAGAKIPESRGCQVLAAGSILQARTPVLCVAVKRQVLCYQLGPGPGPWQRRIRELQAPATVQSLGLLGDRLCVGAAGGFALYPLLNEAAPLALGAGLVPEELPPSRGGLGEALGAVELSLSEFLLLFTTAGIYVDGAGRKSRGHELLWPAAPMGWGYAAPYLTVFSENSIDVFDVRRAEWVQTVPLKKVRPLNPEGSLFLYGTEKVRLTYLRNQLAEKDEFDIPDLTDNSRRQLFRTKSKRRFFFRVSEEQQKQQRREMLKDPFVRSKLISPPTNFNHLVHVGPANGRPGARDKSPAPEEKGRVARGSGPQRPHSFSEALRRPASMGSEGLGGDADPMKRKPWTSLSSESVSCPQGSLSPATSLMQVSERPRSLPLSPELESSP
Sequence of kinases (KINOMEscan panel) (P68400 whole entry): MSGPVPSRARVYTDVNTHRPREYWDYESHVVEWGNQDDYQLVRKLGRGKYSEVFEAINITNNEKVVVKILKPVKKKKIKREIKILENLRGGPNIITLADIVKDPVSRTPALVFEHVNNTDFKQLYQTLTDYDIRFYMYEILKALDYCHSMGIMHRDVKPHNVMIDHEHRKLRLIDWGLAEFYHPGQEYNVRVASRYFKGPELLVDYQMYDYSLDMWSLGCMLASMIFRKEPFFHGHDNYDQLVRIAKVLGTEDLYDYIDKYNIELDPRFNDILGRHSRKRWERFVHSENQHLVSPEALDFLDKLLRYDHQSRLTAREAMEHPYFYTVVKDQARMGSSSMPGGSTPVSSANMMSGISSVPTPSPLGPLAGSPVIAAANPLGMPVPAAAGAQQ
Sequence of PKNB(M.tuberculosis) (P9WI81 whole entry, looked up): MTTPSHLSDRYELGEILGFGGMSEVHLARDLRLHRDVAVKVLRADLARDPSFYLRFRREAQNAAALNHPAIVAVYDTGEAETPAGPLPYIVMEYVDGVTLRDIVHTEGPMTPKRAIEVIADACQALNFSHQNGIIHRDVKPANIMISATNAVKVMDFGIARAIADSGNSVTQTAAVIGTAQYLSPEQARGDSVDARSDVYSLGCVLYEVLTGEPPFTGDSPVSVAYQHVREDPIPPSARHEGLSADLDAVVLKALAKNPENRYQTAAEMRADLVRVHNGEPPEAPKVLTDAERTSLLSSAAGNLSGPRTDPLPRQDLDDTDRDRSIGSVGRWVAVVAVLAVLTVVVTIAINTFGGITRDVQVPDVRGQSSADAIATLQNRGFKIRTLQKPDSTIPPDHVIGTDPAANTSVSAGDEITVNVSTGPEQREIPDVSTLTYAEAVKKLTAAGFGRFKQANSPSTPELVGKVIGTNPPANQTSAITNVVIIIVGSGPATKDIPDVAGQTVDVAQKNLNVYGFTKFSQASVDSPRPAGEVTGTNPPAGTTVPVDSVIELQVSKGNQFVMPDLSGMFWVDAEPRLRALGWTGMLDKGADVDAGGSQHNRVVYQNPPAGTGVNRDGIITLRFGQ
Sequence of PIKFYVE (Q9Y2I7 whole entry): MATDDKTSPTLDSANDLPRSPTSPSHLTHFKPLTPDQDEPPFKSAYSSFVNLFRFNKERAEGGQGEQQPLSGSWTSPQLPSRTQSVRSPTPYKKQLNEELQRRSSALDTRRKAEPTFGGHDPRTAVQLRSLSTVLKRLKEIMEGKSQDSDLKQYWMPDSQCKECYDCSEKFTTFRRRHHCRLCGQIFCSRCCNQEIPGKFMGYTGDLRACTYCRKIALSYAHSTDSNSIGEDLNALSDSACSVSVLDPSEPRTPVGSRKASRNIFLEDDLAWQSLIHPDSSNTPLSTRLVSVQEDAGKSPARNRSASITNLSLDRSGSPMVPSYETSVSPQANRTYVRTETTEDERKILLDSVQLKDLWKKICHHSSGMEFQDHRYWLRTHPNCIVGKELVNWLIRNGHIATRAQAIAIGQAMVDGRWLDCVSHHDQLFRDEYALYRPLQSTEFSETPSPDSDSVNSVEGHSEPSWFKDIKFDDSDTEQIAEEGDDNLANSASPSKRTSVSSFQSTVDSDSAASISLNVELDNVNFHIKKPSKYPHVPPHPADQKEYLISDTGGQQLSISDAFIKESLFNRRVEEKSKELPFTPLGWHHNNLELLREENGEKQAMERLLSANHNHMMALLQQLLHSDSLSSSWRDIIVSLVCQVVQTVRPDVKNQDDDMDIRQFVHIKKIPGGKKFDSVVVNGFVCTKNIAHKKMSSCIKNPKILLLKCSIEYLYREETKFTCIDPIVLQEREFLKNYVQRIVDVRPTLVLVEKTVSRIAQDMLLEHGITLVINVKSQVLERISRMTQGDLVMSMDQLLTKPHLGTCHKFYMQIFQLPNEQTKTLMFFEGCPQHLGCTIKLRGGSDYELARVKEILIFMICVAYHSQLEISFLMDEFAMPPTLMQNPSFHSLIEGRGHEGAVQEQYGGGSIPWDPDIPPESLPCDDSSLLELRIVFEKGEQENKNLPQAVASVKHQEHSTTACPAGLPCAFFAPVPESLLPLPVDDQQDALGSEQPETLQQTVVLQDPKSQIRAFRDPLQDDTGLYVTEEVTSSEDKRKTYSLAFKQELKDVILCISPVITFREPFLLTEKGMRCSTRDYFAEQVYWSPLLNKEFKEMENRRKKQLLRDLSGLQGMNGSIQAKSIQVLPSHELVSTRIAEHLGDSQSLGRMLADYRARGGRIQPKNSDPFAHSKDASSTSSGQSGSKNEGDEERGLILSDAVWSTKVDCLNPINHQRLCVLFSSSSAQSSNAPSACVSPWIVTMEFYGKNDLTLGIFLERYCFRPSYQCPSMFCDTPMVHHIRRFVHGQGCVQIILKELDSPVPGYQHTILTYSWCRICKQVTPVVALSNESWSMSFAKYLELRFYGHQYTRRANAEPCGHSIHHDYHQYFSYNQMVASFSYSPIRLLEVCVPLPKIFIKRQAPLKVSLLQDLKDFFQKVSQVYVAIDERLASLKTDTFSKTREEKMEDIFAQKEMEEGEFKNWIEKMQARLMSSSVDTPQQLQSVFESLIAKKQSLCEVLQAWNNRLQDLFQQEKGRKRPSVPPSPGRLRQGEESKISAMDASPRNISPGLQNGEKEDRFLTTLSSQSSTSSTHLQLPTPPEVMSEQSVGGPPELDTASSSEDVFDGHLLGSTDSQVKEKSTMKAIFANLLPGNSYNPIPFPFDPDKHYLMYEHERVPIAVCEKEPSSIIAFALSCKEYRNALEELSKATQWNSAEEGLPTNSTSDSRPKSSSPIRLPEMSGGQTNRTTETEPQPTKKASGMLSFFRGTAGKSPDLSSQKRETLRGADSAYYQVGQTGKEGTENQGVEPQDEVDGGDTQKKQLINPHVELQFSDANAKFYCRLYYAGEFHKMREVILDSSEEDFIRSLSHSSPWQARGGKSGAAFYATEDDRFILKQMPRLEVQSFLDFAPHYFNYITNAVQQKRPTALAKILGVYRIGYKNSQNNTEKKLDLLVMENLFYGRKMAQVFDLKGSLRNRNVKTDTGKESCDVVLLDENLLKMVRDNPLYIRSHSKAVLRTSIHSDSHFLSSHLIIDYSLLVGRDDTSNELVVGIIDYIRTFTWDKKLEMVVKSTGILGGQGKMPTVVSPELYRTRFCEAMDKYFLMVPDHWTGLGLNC

Turning to `Cc1cccc(-c2nc(Nc3ccc4ncsc4c3)c3ccccc3n2)n1` [NK140], on TGFBR1 [1], the Kd (commonly the concentration at which binding is half-saturated) came out at 5000 nM.

`Cc1cccc(-c2nc(Nc3ccncc3)c3ccccc3n2)n1` [NK215] showed a Kd on TGFBR1 [1] of 9.5 nM.

For `Cc1cccc(-c2nc(N(C)c3ccc4ncsc4c3)c3ccccc3n2)n1` [NK-161], on TGFBR1 [2] (TGFBR1, NEW KINOMEscan), the “KINOMEscan TGFBR1” value came to 12. Also, the “KINOMEscan PRKD1” value on PRKD1 was determined as 46. Moreover, the “KINOMEscan CDC42BPG/DMPK2” value at CDC42BPG/DMPK2 is listed as 21. Further, the “KINOMEscan PRKD3” value at PRKD3 was 74. Further, the “KINOMEscan PIKFYVE” value on PIKFYVE amounted to 16. Besides, the “KINOMEscan CSNK2A1” value in assay [3] stood at 19. Besides, the “KINOMEscan PKNB(M.tuberculosis)” value at PKNB(M.tuberculosis) was 9.

With `Cc1cccc(-c2nc(Nc3ccc4nn(C)cc4c3)c3ccccc3n2)n1` [NK167], the “KINOMEscan TGFBR1” value at TGFBR1 [2] was determined as 21. Moreover, at PRKD1, the “KINOMEscan PRKD1” value is recorded as 0. Moreover, at CDC42BPG/DMPK2, the “KINOMEscan CDC42BPG/DMPK2” value is recorded as 0. In addition, on PRKD3, the “KINOMEscan PRKD3” value is listed as 39. Further, the “KINOMEscan PIKFYVE” value on PIKFYVE came out at 0. For the same compound, the “KINOMEscan CSNK2A1” value in assay [3] was found to be 0. At PKNB(M.tuberculosis), the “KINOMEscan PKNB(M.tuberculosis)” value was 12.
